Data from patent publication US8431540B2, “Modified lysine-mimetic compounds” (Zealand Pharma A/S, priority 2005, dated 2013).

Experiments:
[1] = test system: Male CD-1 mice; assay: Calcium-induced arrhythmia model (time to AV block after CaCl2 infusion); format: in vivo; settings: compound IV 3 min before CaCl2 infusion (100 mg/kg/min), saline control 62-78
Protocol: Peptides suitable for administration to cardiac cells can be identified in an in vivo model of calcium-induced arrhythmias according to the model of Lynch et al. (1981) J Cardiovasc. Pharmacol. 3: 49-60. Male CD-1 mice are anaesthetized with Ketamine (75 mg/kg) and medetomidine (1 mg/kg) IP. An i.v. cannula is inserted into the tail vein. A lead II ECG signal is recorded continuously by positioning stainless steel ECG electrodes on the right forelimb and […]. The ground electrode is placed on the right hind limb. The signal is amplified and filtered using Gould physiograph components and po-ne-mah data acquisition software. After a 90 sec equilibration period test compound is injected into the tail vein (over 30 seconds). Mice pre-treated with vehicle are tested as control animals. The injection volume is 100 μl/30 g mice in all experiments. Infusion of CaCl2 (30 mg/mL, 0.1 mL/min/30 g mice, 100 mg/kg/min) is started 3 min after IV administration of drug or vehicle (0.9% saline). The time lag to onset of cardiac conduction block is determined as the time from the start of CaCl2 infusion until the first arrhythmic event occurred. The first conduction block is defined as the first RR-interval, larger than or equal to 3 times one RR-interval from the pre-treatment period. The first arrhythmic event occurring is either a second degree AV-block (intermittent failure of the AV conduction characterized by a P-wave without the concomitant QRS complex) or a second degree SA block (prolonged RR-interval and a QRS-complex without a preceding P-wave). Responses are expressed relative to the time until 2nd degree AV-block occurred in vehicle treated mice.
The anti-arrhythmic effect of compounds according to the present teachings was tested in a model of calcium-induced arrhythmias according to the model of Lynch et al., J. Cardiovasc. Pharmacol. (1981), 3: 49-60. Male CD-1 mice were anaesthetized with Ketamine (75 mg/kg) and medetomidine (1 mg/kg) IP. An i.v. cannula was inserted into the tail vein. A lead II ECG signal was recorded continuously by positioning stainless steel ECG electrodes on the right forelimb and […]. The ground electrode was placed on the right hind limb. The signal was amplified and filtered using Gould physiograph components and po-ne-mah data acquisition software. After a 90 sec equilibration period test compound was injected into the tail vein (over 30 seconds). Mice pre-treated with vehicle (0.9% saline) were tested as control animals. The injection volume was 100 μl/30 g mice in all experiments. Infusion of CaCl2 (30 mg/mL, 0.1 mL/min/30 g mice, 100 mg/kg/min) was started 3 min after IV administration of drug or vehicle. The time lag to onset of cardiac conduction block was determined as the time from the start of CaCl2 infusion until the first arrhythmic event occurred. The first conduction block was defined as the first RR-interval, larger/or equal to, 3 times one RR-interval from the pre-treatment period. The first arrhythmic event occurring was either a second degree AV-block (intermittent failure of the AV conduction characterized by a P-wave without the concomitant QRS complex) or a second degree SA block (prolonged RR-interval and a QRS-complex without a preceding P-wave).
Mice pre-treated with vehicle (0.9% saline) were tested on all days as a measure for control level in untreated animal. Injection volume was 100 μL in all experiments. The time lag to onset of arrhythmias was determined as the time from the start of CaCl2 infusion until the first event of conduction block defined as intermittent failure of the SA or AV conduction characterized by delayed P-wave activation (SA block) or by a P-wave without the concomitant QRS complex (AV block). The time lag to onset of AV block is given below in Table 2.

[2] = Plasma stability assay; settings: male rat plasma (1:1 plasma:pH 7.4 buffer), 1 μM, 37° C., 3 hours
Protocol: To predict its plasma stability, compounds of the present teachings were incubated in male rat plasma (1:1 plasma:pH 7.4 buffer) at 1 μM concentration at 37° C. After 3 hours, the reaction was quenched with cold acetonitrile. The solution was centrifuged and the supernatant was analyzed with LC-MS using the following HPLC conditions: Thermo Hypersil-Keystone Aquasil C18 column (50 mm×2.1 mm, 5 μM) at ambient temperature; Solvent A: 0.1% formic acid in water; Solvent B: 0.1% formic acid in acetonitrile; solvent gradient: 100% A to 50% A over 2.5 min, to 10% A over 1.5 min, and returning to 100% A and re-equilibrating for 1.5 min; flowrate: 0.8 mL/min. The percent of the compound remaining was calculated by dividing the 3-hour incubation sample LC-MS signal area counts by the time=0 area counts.

[3] = Metabolic stability assay (liver microsomes); settings: male, rat
Protocol: To predict the stability of the compound under first pass (Phase I) metabolism, compounds of the present teachings were incubated with male rat liver microsomes at 1 μM concentration and 0.5 mg/mL protein concentration at 37° C. After 15 min, the reaction was quenched with cold acetonitrile. The solution was centrifuged and the supernatant was analyzed with LC-MS using the HPLC conditions described in section 3 above.

| Structure (SMILES) | % Remaining [2] | half-life at 1 μM [3] | Time to AV block [1] | half-life in male rat liver microsomes |
| --- | --- | --- | --- | --- |
| NC(CCC(=O)O)C(=O)N1C[C@H](NC(=O)c2ccccc2)C[C@H]1C(=O)O (stereo partly drawn) [Compound 6, (2S,4R)1-(2-Amino-4-carboxy-butyryl)-4-benzoylamino-pyrrolidine-2-carboxylic acid] |  |  | 117.9 s |  |
| NCC(=O)Nc1cc(NC(=O)c2ccccc2)cc(C(=O)O)c1 [Compound 26, 3-(2-Amino-acetylamino)-5-benzoylamino-benzoic acid] |  |  | 122.8 s |  |
| O=C(N[C@@H]1C[C@@H](C(=O)O)N(C(=O)CO)C1)c1ccccc1 [Compound 52, (2S,4R) 4-Benzoylamino-1-(2-hydroxy-acetyl)-pyrrolidine-2-carboxylic acid] |  |  | 135.6 s |  |
| O=C(CO)Nc1cc(NC(=O)c2ccccc2)cc(C(=O)O)c1 [Compound 54, 3-Benzoylamino-5-(2-hydroxy-acetylamino)-benzoic acid] |  |  | 121.7 s |  |
| NC(=O)C1N(C(=O)CO)CCN1C(=O)c1ccccc1 (stereo not drawn) [Compound 56, 1-Benzoyl-3-(2-hydroxy-acetyl)-imidazolidine-2-carboxylic acid amide] |  |  | 128.1 s |  |
| CC(C)(C)OC(=O)NCC(=O)N1C[C@H](NC(=O)c2ccccc2)C[C@H]1C(N)=O [Compound 69, (2S,4R) 4-benzamido-1-(2-(tert-butoxycarbonylamino)acetyl) pyrrolidine-2-carboxamide] |  |  |  | greater than 30 minutes |
| CC(=O)NCC(=O)N1C[C@H](NC(=O)c2ccccc2)C[C@H]1C(=O)O [Compound 80, (2S,4R) 1-(2-acetamidoacetyl)-4-benzamidopyrrolidine-2-carboxylic acid] | 100% | > 30 min | 111.5 s |  |
| O=C(N[C@@H]1C[C@@H](C(=O)O)N(C(=O)CNC(=O)C(F)(F)F)C1)c1ccccc1 [Compound 82, (2S,4R) 4-benzamido-1-(2-(2,2,2-trifluoroacetamido)acetyl)pyrrolidine-2-carboxylic acid] | 34% | > 30 min | 113.8 s |  |
| CC(C)(C)OC(=O)NCC(=O)N1C[C@H](NC(=O)c2ccccc2)C[C@H]1C(=O)O [Compound 83, (2S,4R) 4-benzamido-1-(2-(tert-butoxycarbonylamino)acetyl) pyrrolidine-2-carboxylic acid] | 100% | > 30 min | 110.9 s |  |
| CN(C)CC(=O)N1C[C@H](NC(=O)c2ccccc2)C[C@H]1C(=O)O [Compound 84, (2S,4R) 4-benzamido-1-(2-(dimethylamino)acetyl)pyrrolidine-2-carboxylic acid] | 100% | > 30 min | 108.8 s |  |
| O=CNCC(=O)N1C[C@H](NC(=O)c2ccccc2)C[C@H]1C(=O)O [Compound 85, (2S,4R) 4-benzamido-1-(2-formamidoacetyl)pyrrolidine-2-carboxylic acid] | 107% |  |  |  |

Now from value to molecule, other results behind:

| % Remaining [2] | half-life at 1 μM [3] | Structure (SMILES) | Time to AV block [1] | half-life in male rat liver microsomes |
| --- | --- | --- | --- | --- |
| 27% | > 30 min | NCC(=O)N1C[C@H](NC(=O)c2ccccc2)C[C@H]1C(N)=O [Compound 64, (2S,4R) 1-(2-aminoacetyl)-4-benzamidopyrrolidine-2-carboxamide] | 111.7 s |  |
| 87% | > 30 min | CNC(=O)[C@@H]1C[C@@H](NC(=O)c2ccccc2)CN1C(=O)CN [Compound 65, (2S,4R) 1-(2-aminoacetyl)-4-benzamido-N-methylpyrrolidine-2-carboxamide] | 115.2 s |  |
| 100% | > 30 min | CCNC(=O)[C@@H]1C[C@@H](NC(=O)c2ccccc2)CN1C(=O)CN [Compound 66, (2S,4R) 1-(2-aminoacetyl)-4-benzamido-N-ethylpyrrolidine-2-carboxamide] | 122.7 s |  |
| 100% | > 30 min | CC(C)NC(=O)[C@@H]1C[C@@H](NC(=O)c2ccccc2)CN1C(=O)CN [Compound 67, (2S,4R) 1-(2-aminoacetyl)-4-benzamido-N-isopropylpyrrolidine-2-carboxamide] | 134.4 s |  |
| 96% | > 30 min | NCC(=O)N1C[C@H](NC(=O)c2ccccc2)C[C@H]1C(=O)NC1CC1 [Compound 68, (2S,4R) 1-(2-aminoacetyl)-4-benzamido-N-cyclopropylpyrrolidine-2-carboxamide] | 143.8 s |  |
| 93% | > 30 min | CCC(CC)NC(=O)[C@@H]1C[C@@H](NC(=O)c2ccccc2)CN1C(=O)CN [Compound 70, (2S,4R) 1-(2-aminoacetyl)-4-benzamido-N-(pentan-3-yl)pyrrolidine-2-carboxamide] |  |  |
| 90% | > 30 min | NCC(=O)N1C[C@H](NC(=O)c2ccccc2)C[C@H]1C(=O)NC1CCCC1 [Compound 71, (2S,4R) 1-(2-aminoacetyl)-4-benzamido-N-cyclopentylpyrrolidine-2-carboxamide] |  |  |
| 88% | > 30 min | CC(C)CNC(=O)[C@@H]1C[C@@H](NC(=O)c2ccccc2)CN1C(=O)CN [Compound 72, (2S,4R) 1-(2-aminoacetyl)-4-benzamido-N-isobutylpyrrolidine-2-carboxamide] |  |  |
| 95% | > 30 min | NCC(=O)N1C[C@H](NC(=O)c2ccccc2)C[C@H]1C(=O)NC1CCC1 [Compound 73, (2S,4R) 1-(2-aminoacetyl)-4-benzamido-N-cyclobutylpyrrolidine-2-carboxamide] |  |  |
| 100% | > 30 min | CNCC(=O)N1C[C@H](NC(=O)c2ccccc2)C[C@H]1C(=O)O [Compound 81, (2S,4R) 4-benzamido-1-(2-(methylamino)acetyl)-pyrrolidine-2-carboxylic acid] | 123.2 s |  |
